Measurements from ChEMBL document CHEMBL5352432, “Ad-hoc modifications of cyclic mimetics of SOCS1 protein: Structural and functional insights” (Eur J Med Chem, 2022).
Active and inactive are the calls of the source. The calls are words filed in the database; no cut-off is given here. Positions of bridges follow the written chain, without caps; N, C: chain ends. Non-standard residues stand in square brackets, D forms with d. Residues, ends and D or L forms follow the SMILES beside them. *: point of attachment. 1Nal = N[C@@H](Cc1cccc2ccccc12)C(=O)O; hArg = N=C(N)NCCCC[C@H](N)C(=O)O; Cit = NC(=O)NCCC[C@H](N)C(=O)O; Orn = NCCC[C@H](N)C(=O)O; Ac5c = NC1(C(=O)O)CCCC1; Dap = NC[C@H](N)C(=O)O; Acm = CC(=O)NC*

What was measured:
[1] = target: Tyrosine-protein kinase JAK2 (Homo sapiens, UniProt O60674); test: Binding affinity to His-tagged JAK2 catalytic domain (826 to 1132 residues) (unknown origin) assessed as dissociation constant incubated for 30 mins by MST analysis
Sequence of Tyrosine-protein kinase JAK2 (O60674 whole entry, the tested form may be a part): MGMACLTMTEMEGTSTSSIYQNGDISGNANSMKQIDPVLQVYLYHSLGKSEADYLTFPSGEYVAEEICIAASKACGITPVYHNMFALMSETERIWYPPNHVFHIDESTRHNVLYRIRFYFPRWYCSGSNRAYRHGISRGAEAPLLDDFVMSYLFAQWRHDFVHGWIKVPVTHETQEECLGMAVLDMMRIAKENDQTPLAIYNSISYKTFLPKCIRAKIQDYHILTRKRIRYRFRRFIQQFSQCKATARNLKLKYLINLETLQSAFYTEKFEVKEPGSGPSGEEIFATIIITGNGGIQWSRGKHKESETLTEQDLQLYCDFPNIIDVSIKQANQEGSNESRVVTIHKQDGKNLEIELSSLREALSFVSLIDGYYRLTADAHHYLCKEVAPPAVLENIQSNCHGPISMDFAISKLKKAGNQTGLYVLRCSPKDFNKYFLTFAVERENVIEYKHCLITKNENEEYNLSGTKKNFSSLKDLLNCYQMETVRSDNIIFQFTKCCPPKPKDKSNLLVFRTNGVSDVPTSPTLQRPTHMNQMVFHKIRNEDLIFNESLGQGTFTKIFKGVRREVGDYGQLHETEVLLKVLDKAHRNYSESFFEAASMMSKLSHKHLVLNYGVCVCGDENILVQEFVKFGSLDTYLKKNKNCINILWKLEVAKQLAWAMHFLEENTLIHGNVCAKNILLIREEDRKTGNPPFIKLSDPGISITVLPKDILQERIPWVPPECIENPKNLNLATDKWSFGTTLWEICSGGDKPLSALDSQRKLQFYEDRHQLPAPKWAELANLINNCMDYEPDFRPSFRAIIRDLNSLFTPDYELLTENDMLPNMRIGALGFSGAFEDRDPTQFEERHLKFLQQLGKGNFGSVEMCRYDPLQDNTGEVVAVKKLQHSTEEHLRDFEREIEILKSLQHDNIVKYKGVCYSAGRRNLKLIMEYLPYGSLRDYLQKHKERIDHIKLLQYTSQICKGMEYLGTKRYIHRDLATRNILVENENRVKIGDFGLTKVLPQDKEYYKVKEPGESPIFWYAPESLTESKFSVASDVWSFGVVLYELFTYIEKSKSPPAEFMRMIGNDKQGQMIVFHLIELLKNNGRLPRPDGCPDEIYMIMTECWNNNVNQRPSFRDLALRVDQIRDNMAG

[2] = Proteolytic stability of the compound in fetal bovine serum assessed as drug degradation incubated for 42 hrs by RP-HPLC analysis; assay type: ADME, cell-free, Bos taurus; conditions: cattle
[3] = Stability of the compound in fetal bovine serum incubated for 42 hrs by RP-HPLC analysis; assay type: ADME, cell-free, Bos taurus; conditions: cattle
[4] = Stability of the compound in fetal bovine serum assessed as drug degradation incubated for 17 hrs by RP-HPLC analysis; assay type: ADME, cell-free, Bos taurus; conditions: cattle, read-out: Drug degradation
[5] = Proteolytic stability of the compound in fetal bovine serum assessed as drug degradation incubated for 17 hrs by RP-HPLC analysis; assay type: ADME, cell-free, Bos taurus; conditions: cattle, read-out: Drug degradation
[6] = Stability of the compound in fetal bovine serum assessed as drug degradation incubated for 42 hrs by RP-HPLC analysis; assay type: ADME, cell-free, Bos taurus; conditions: cattle, read-out: Drug degradation

**Q.** Which Kd [1] does the source give for `CC(=O)NCSC[C@@H]1NC(=O)[C@H]([C@@H](C)O)NC(=O)[C@@H](NC(C)=O)CC(=O)NCCCC[C@@H](C(=O)N[C@@H](Cc2c[nH]cn2)C(=O)O)NC(=O)[C@H](CCCNC(=N)N)NC(=O)[C@H](Cc2cccc3ccccc23)NC(=O)C2(CCCC2)NC(=O)[C@H](CCC(N)=O)NC(=O)[C@H](CCCNC(=N)N)NC1=O` (Ac-DTC(Acm)RQ[Ac5c][1Nal]RKH-OH; lactam 1-9) here?
**A.** 120 µM

**Q.** What about the Stability [2] of the same molecule?
**A.** Stable

**Q.** With `CC(=O)NCSC[C@@H]1NC(=O)C2(CCCC2)NC(=O)[C@@H](NC(C)=O)CC(=O)NCCCC[C@@H](C(=O)N[C@@H](Cc2c[nH]cn2)C(=O)O)NC(=O)[C@H](CCCNC(=N)N)NC(=O)[C@H](Cc2cccc3ccccc23)NC(=O)[C@H]([C@@H](C)O)NC(=O)[C@H](CCC(N)=O)NC(=O)[C@H](CCCNC(=N)N)NC1=O` (Ac-D[Ac5c]C(Acm)RQT[1Nal]RKH-OH; lactam 1-9) as the molecule, how does the Kd [1] read?
**A.** 260 µM

**Q.** And the Stability [2]?
**A.** Stable

**Q.** With `CC(=O)NCSC[C@@H]1NC(=O)[C@H]([C@@H](C)O)NC(=O)[C@@H](NC(C)=O)CCC(=O)NCCCC[C@@H](C(=O)N[C@@H](Cc2c[nH]cn2)C(=O)O)NC(=O)[C@H](CCCNC(=N)N)NC(=O)[C@H](Cc2cccc3ccccc23)NC(=O)[C@H]([C@@H](C)O)NC(=O)[C@H](CCC(N)=O)NC(=O)[C@H](CCCNC(=N)N)NC1=O` (Ac-ETC(Acm)RQT[1Nal]RKH-OH; lactam 1-9) as the molecule, how does the Kd [1] read?
**A.** 52 µM

**Q.** And the Stability [3]?
**A.** Stable

**Q.** Which Kd [1] does the source give for `CC(=O)NCSC[C@@H]1NC(=O)[C@H]([C@@H](C)O)NC(=O)[C@@H](NC(C)=O)CC(=O)NCCCC[C@@H](C(=O)N[C@@H](Cc2c[nH]cn2)C(=O)O)NC(=O)[C@H](CCCCNC(=N)N)NC(=O)[C@H](Cc2cccc3ccccc23)NC(=O)[C@H]([C@@H](C)O)NC(=O)[C@H](CCCN)NC(=O)[C@H](CCCNC(=N)N)NC1=O` (Ac-DTC(Acm)R[Orn]T[1Nal][hArg]KH-OH; lactam 1-9) here?
**A.** 39 µM

**Q.** What about the Stability [3] of the same molecule?
**A.** Stable

**Q.** Which Kd [1] does the source give for `CC(=O)NCSC[C@@H]1NC(=O)[C@H]([C@@H](C)O)NC(=O)[C@@H](NC(C)=O)CC(=O)NCCCC[C@@H](C(=O)N[C@@H](Cc2c[nH]cn2)C(=O)O)NC(=O)[C@H](CCCCNC(=N)N)NC(=O)[C@H](Cc2cccc3ccccc23)NC(=O)[C@H]([C@@H](C)O)NC(=O)[C@H](CCCNC(N)=O)NC(=O)[C@H](CCCNC(=N)N)NC1=O` (Ac-DTC(Acm)R[Cit]T[1Nal][hArg]KH-OH; lactam 1-9) here?
**A.** 31 µM

**Q.** And the Stability [3]?
**A.** Stable

**Q.** With `CC(=O)NCSC[C@@H]1NC(=O)[C@H]([C@@H](C)O)NC(=O)[C@@H](NC(C)=O)CCC(=O)NCCC[C@@H](C(=O)N[C@@H](Cc2c[nH]cn2)C(=O)O)NC(=O)[C@H](CCCNC(=N)N)NC(=O)[C@H](Cc2cccc3ccccc23)NC(=O)[C@H]([C@@H](C)O)NC(=O)[C@H](CCC(N)=O)NC(=O)[C@H](CCCNC(=N)N)NC1=O` (Ac-ETC(Acm)RQT[1Nal]R[Orn]H-OH; lactam 1-9) as the molecule, how does the Activity [1] read?
**A.** inactive

**Q.** What about the Stability [3] of the same molecule?
**A.** Unstable

**Q.** With `CC(=O)NCSC[C@@H]1NC(=O)[C@H]([C@@H](C)O)NC(=O)[C@@H](NC(C)=O)CC(=O)NCCCC[C@@H](C(=O)N[C@@H](Cc2c[nH]cn2)C(=O)O)NC(=O)[C@H](CCCNC(=N)N)NC(=O)[C@H](Cc2cccc3ccccc23)NC(=O)[C@H]([C@@H](C)O)NC(=O)[C@H](CCC(N)=O)NC(=O)[C@H](CCCNC(=N)N)NC1=O` (Ac-DTC(Acm)RQT[1Nal]RKH-OH; lactam 1-9) as the molecule, how does the Kd [1] read?
**A.** 36 µM

**Q.** What about the metabolised at 17 h [4] of the same molecule?
**A.** 30%

**Q.** Which results are given for `CC(=O)NCSC[C@@H]1NC(=O)[C@H]([C@@H](C)O)NC(=O)[C@@H](NC(C)=O)CC(=O)NCCCC[C@@H](C(=O)N[C@@H](Cc2c[nH]cn2)C(=O)O)NC(=O)[C@H](CCCNC(=N)N)NC(=O)[C@H](Cc2cccc3ccccc23)NC(=O)[C@H]([C@@H](C)O)NC(=O)[C@H](CCCNC(N)=O)NC(=O)[C@H](CCCNC(=N)N)NC1=O` (Ac-DTC(Acm)R[Cit]T[1Nal]RKH-OH; lactam 1-9)?
**A.** Kd [1]: 36 µM; metabolised at 17 h [4]: 50%

**Q.** For `CC(=O)NCSC[C@@H]1NC(=O)[C@H]([C@@H](C)O)NC(=O)[C@@H](NC(C)=O)CCCCNC(=O)C[C@@H](C(=O)N[C@@H](Cc2c[nH]cn2)C(=O)O)NC(=O)[C@H](CCCNC(=N)N)NC(=O)[C@H](Cc2cccc3ccccc23)NC(=O)[C@H]([C@@H](C)O)NC(=O)[C@H](CCC(N)=O)NC(=O)[C@H](CCCNC(=N)N)NC1=O` (Ac-KTC(Acm)RQT[1Nal]RDH-OH; lactam 1-9), which Kd [1] is on record?
**A.** 160 µM

**Q.** And the metabolised at 17 h [5]?
**A.** 100%

**Q.** Which results are given for `CC(=O)NCSC[C@@H]1NC(=O)[C@H]([C@@H](C)O)NC(=O)[C@@H](NC(C)=O)CC(=O)NC[C@@H](C(=O)N[C@@H](Cc2c[nH]cn2)C(=O)O)NC(=O)[C@H](CCCNC(=N)N)NC(=O)[C@H](Cc2cccc3ccccc23)NC(=O)[C@H]([C@@H](C)O)NC(=O)[C@H](CCC(N)=O)NC(=O)[C@H](CCCNC(=N)N)NC1=O` (Ac-DTC(Acm)RQT[1Nal]R[Dap]H-OH; lactam 1-9)?
**A.** Activity [1]: inactive; Stability [3]: Unstable

**Q.** What does the source list for `CC(=O)NCSC[C@@H]1NC(=O)[C@H]([C@@H](C)O)NC(=O)[C@@H](NC(C)=O)CC(=O)NCCCC[C@@H](C(=O)N[C@@H](Cc2c[nH]cn2)C(=O)O)NC(=O)[C@H](CCCNC(=N)N)NC(=O)[C@H](Cc2cccc3ccccc23)NC(=O)[C@H]([C@@H](C)O)NC(=O)[C@H](CCCN)NC(=O)[C@H](CCCNC(=N)N)NC1=O` (Ac-DTC(Acm)R[Orn]T[1Nal]RKH-OH; lactam 1-9)?
**A.** Kd [1]: 32 µM; metabolised at 17 h [4]: 30%; metabolised at 42 h [6]: 100%

**Q.** For `CC(=O)NCSC[C@@H]1NC(=O)[C@H]([C@@H](C)O)NC(=O)[C@@H](NC(C)=O)CCC(=O)NC[C@@H](C(=O)N[C@@H](Cc2c[nH]cn2)C(=O)O)NC(=O)[C@H](CCCNC(=N)N)NC(=O)[C@H](Cc2cccc3ccccc23)NC(=O)[C@H]([C@@H](C)O)NC(=O)[C@H](CCC(N)=O)NC(=O)[C@H](CCCNC(=N)N)NC1=O` (Ac-ETC(Acm)RQT[1Nal]R[Dap]H-OH; lactam 1-9), which Kd [1] is on record?
**A.** 71 µM

**Q.** What about the Stability [3] of the same molecule?
**A.** Stable
